Test results taken from US12723029B2, “Mitochondrial ATP inhibitors targeting the gamma subunit prevent metastasis” (LUNELLA BIOTECH, INC., priority 2020, dated 2026).

Legend:
MCF10A cells = test: 2D monolayer growth, MCF10A; conditions: MCF10A normal control mammary epithelial cells; 10 μM
ATP5F1C = target: T1, ATP5F1C (Homo sapiens, UniProt P05496+P36542); test: Western blot of ATP5F1C protein expression in MDA-MB-231 2D monolayers; type: cell-based; conditions: 0.1, 1 and 10 μM, especially 10 μM, 24-120 hours, relative to DMSO
T1 construct: Western blot analysis of MDA-MB-231 2D cell monolayers treated with Bedaquiline; endogenous in cells; host or cells: MDA-MB-231 (ATCC)
Method: The binding of Bedaquiline to ATP5F1C in situ induces degradation of the protein. […] The effect was both time- and concentration-dependent.
(§1) Western Blotting: Cells were lysed in RIPA buffer (Sigma Aldrich, Inc.) containing one tablet of Complete TM inhibitor mix (Roche Applied Science, Indianapolis) and one tablet of PhosSTOP™ […] per 10 mL of buffer and loaded onto SDS-polyacrylamide gels. The gels were transferred to 0.2 μm nitrocellulose membranes, using the Trans-Blot Turbo Transfer System (Bio-Rad, Inc.) Membranes were incubated with the respective primary antibodies diluted in Tris-buffered saline, 0.1% Tween 20 (Sigma Aldrich, Inc.) and 5% Bovine Serum Albumin (BSA; Sigma Aldrich Inc.) (TBST), and incubated overnight at 4° C. Then, the blots were washed and incubated with appropriate secondary antibodies and detected using Super Signal West Pico Chemiluminescent Substrate (Thermo Scientific, Inc.), using the G-Box (Syngene, Inc). Antibodies and their dilutions used for Western blot analysis were as follows: mouse anti-ATP5F1C 1:500, mouse anti-β-actin 1:10,000, rabbit anti-PARP 1:1,000, rabbit anti-p21 1:1,000. The resulting immune-blot images were acquired using GeneSys Software (Syngene, Inc.).

MDA-MB-231 cells [1] = test: Cell migration assay (Transwells); type: cell-based, human; conditions: 10 μM, 32 hours then 16 hours in Transwells
Method: MDA-MB-231 cells were cultured in presence of Bedaquiline (10 μM) for 32 hours and moved to the Transwells for 16 hours in presence of Bedaquiline (10 μM). Unpaired t-test, **p<0.005.
Cell Migration Assays: Briefly, 3.5×10^4 cells in 0.5 ml of serum-free DMEM with 0.1% BSA were added to the wells of 8-μm pore, non-coated membrane modified Boyden chambers (Transwells). The lower chambers contained 10% fetal bovine serum in DMEM to serve as a chemo-attractant. Cells were incubated at 37° C. and allowed to migrate throughout the course of 16 hours. Noninvasive cells were removed from the upper surface of the membrane by scrubbing with cotton swabs. Chambers were stained in 0.5% crystal violet diluted in 100% methanol for 30-60 min, rinsed in water and examined under a bright-field microscope. Values for invasion and migration were obtained by counting five fields per membrane (20× objective) and represent the average of three independent experiments.

MDA-MB-231 cells [2] = test: 2D monolayer growth, MDA-MB-231; type: cell-based, human; conditions: 10 μM, time-dependent
PARP = test: Western blot of PARP protein expression; type: cell-based, human; conditions: MDA-MB; 0.1, 1 and 10 μM; 120 hours
Method: (§2) Beta-actin was used as a control for equal loading.
as §1

MDA-MB-231 cells [3] = test: Live cell/dead cell analysis by FACS; type: cell-based, human; conditions: 1 and 10 μM
Method: FIGS. 10D-10F show the results of live cell/dead cell analysis. MDA-MB-231 cells were treated with Bedaquiline (1 and 10 μM) or vehicle alone, for 48, 72 and 120 hours, and then subjected to live/dead analysis by FACS. […] However, at 72 and 120 hours (FIGS. 10E and 10F), a decrease in the live cell population and an increase in the dead cell population can be seen. […] Two-way ANOVA, Sidak's multiple comparisons test, ns=not significant, *p<0.01, **p<0.001, ***p<0.0005.

p21 = test: Western blot of p21 protein expression; type: cell-based, human; conditions: MDA-MB; 0.1, 1 and 10 μM; 120 hours
Method: as §2, §1

[4] = tested on: mitochondrial ATP production in MDA-MB-231 cells; test: ATP assay using BioTracker ATP-Red 1 (flow cytometry); type: cell-based, human
Method: FIG. 7 compares the fold-change of BioTracker ATP-Red (signal mean) between the control and MDA-MB-231 cells treated with Bedaquiline. […] The data in FIG. 7 based on two-way ANOVA, Sidak's multiple comparisons test, *p<0.05, ** p<0.005, ***p<0.0005, ****p<0.0001.
ATP assay using BioTracker ATP-Red 1: Cells were stained with BioTracker ATP-Red 1 after various treatments. After 30 minutes of incubation, the cells were washed twice with DPBS, collected and dissociated into a single-cell suspension with a 40 μm cell strainer. The cells were analyzed using the Attune N×T Flow Cytometer. Means of the signal (at 570 nm) were compared.

MDA-MB-231 cells [5] = test: CAM assay: tumor growth and spontaneous metastasis of MDA-MB-231 xenografts; type: in vivo, chicken embryo (White Leghorn eggs)
MDA-MB-231 cells [6] = test: Cell cycle analysis by FACS; type: cell-based, human
Method: FIGS. 10A-10C show cell cycle populations for MDA-MB-231 cells treated with Bedaquiline (1 and 10 μM) or vehicle alone, after 48, 72 and 120 hours, respectively. Cell cycle analysis was performed using FACS. […] However, at 72 and 120 hours, a decrease in the S-phase population and a concomitant increase in the sub-G0-G1 population can be seen in FIGS. 10B and 10C. Two-way ANOVA, Sidak's multiple comparisons test, ns=not significant, *p<0.01, **p<0.001, ***p<0.0005.
Cell Cycle Analysis by FACS: Cell-cycle analysis was performed on the ATP-high and ATP-low cell sub-populations, by FACS analysis using the Attune N×T Flow Cytometer. Briefly, after trypsinization, the re-suspended cells were incubated with propidium iodide, as per the manufacturer's recommendations (Merck Millipore, Inc.). At least 25,000 events were analyzed per condition. Gated cells were categorized into cell-cycle stages.

chick embryos = test: CAM assay: embryo toxicity; set-up: species or system chicken (White Leghorn); conditions: all concentrations tested in vivo; daily for 8 days
Method: Next, to test in vivo activity, the well-established CAM assay was used with MDA-MB-231 cells, to measure the effect of Bedaquiline effects on tumor growth, spontaneous metastasis and embryo toxicity. FIG. 11A illustrates the timeline for the CAM assay. An inoculum of 1×10^6 MDA-MB-231 cells was added onto the CAM of each egg (day E9) and then eggs were randomized into groups. On day E10, tumors were detectable and they were then treated daily for 8 days with vehicle alone (1% DMSO in PBS) or Bedaquiline. After 8 days of drug administration, on day E18, all tumors were weighed, and the lower CAM was collected to evaluate the number of metastatic cells, as analyzed by qPCR with specific primers for Human Alu sequences. Before each drug administration, treatment tolerability was evaluated by scoring the number of live and dead chicken embryos.
Tumor Growth, Metastasis and Embryo Toxicity Assays: Xenograft assays were carried out by INOVOTION (Société: 811310127), La Tronche-France. […] For tumor growth assays, at least 14 tumor samples were collected and analysed per group (N≥14). […] Genomic DNA was extracted from the CAM (commercial kit) and analyzed by qPCR with specific primers for Human Alu sequences. […] Before each administration, the treatment tolerability was evaluated by scoring the number of live and dead embryos.

MDA-MB-231 cells [7] = test: 3D anchorage independent growth (mammosphere formation) assay; type: cell-based, human
Method: 3D Anchorage Independent Growth Assay: This assay is also referred to as the mammosphere formation assay. A single-cell suspension was prepared using enzymatic, and manual disaggregation (25-g needle). Then, cells were plated at a density of 500 cells/cm^2 in mammosphere medium (DMEM-F12+1X B-27 Plus Supplement+20 ng/ml EGF+Pen/Strep) under non-adherent conditions, in culture dishes pre-coated with (2-hydroxyethylmethacrylate) (poly-HEMA, Sigma Aldrich Inc.), called “mammosphere plates.” Cells were grown for 5 days and maintained in a humidified incubator at 37° C. After 5 days of culture, 3D-mammospheres >50 μm were counted using an eye piece (“graticule”), and the percentage of cells plated which formed spheres was calculated and is referred to as percent mammosphere formation, and was normalized to one (1=100% MFE). 3D mammosphere formation efficiency (MFE) was analyzed in both the ATP-low and ATP-high sub-populations of cells. All 3D mammosphere experiments were performed in triplicate, at least 3 times independently.

COc1nc2ccc(Br)cc2cc1[C@@H](c1ccccc1)[C@@](O)(CCN(C)C)c1cccc2ccccc12 [Bedaquiline, (1R,2S)-1-(6-bromo-2-methoxyquinolin-3-yl)-4-(dimethylamino)-2-naphthalen-1-yl-1-phenylbutan-2-ol]
2D monolayer growth (MCF10A cells): No effect
levels of ATP5F1C protein expression (ATP5F1C): reduced in a sustained way
block of cell migration (MDA-MB-231 cells [1]): ~ 50%
2D monolayer growth (MDA-MB-231 cells [2]): effectively inhibits 2D growth
PARP protein expression (PARP): decreased in a concentration-dependent manner
apoptotic cell population (early or late) (MDA-MB-231 cells [3]; 72 and 120 hours): no increase
dead cell population (MDA-MB-231 cells [3]; 72 and 120 hours): increase
live cell population (MDA-MB-231 cells [3]; 72 and 120 hours): decrease
live/dead cell populations (MDA-MB-231 cells [3]; 48 hours): No effects were detectable
p21 protein expression (p21): decreased in a concentration-dependent manner
inhibition at 10 µM ([4]; Homo sapiens, MDA-MB-231, 10 μM, 120 hours of treatment, read-out: maximal inhibition of mitochondrial ATP production): 75%
inhibition of spontaneous metastasis (MDA-MB-231 cells [5]; CAM, 120 μM treatment, daily for 8 days, qPCR Human Alu, vs control): 84%
tumor growth (average tumor weight) (MDA-MB-231 cells [5]; CAM, treated daily for 8 days, day E18): no statistically significant effect
S-phase population (MDA-MB-231 cells [6]; 1 and 10 μM, 72 and 120 hours): decrease
sub-G0-G1 population (MDA-MB-231 cells [6]; 1 and 10 μM, 72 and 120 hours): increase
cell cycle populations (MDA-MB-231 cells [6]; 1 and 10 μM, 48 hours): No effects were detectable
increase in the sub-G0-G1 population (MDA-MB-231 cells [6]; after 120 hours of treatment): 2 fold
reduction of cells in S-phase (MDA-MB-231 cells [6]; after 120 hours of treatment): 2 fold
toxicity for chick embryos (egg survival) (chick embryos): not toxic
block of 3D mammosphere formation (MDA-MB-231 cells [7]; MDA-MB-231, 10 μM): ~ 65%

CCCCCCCCCCCCCC(=O)OCCCCc1ccc2nc(OC)c([C@@H](c3ccccc3)[C@@](O)(CCN(C)C)c3cccc4ccccc34)cc2c1 [structure [4B]]
potency relative to unconjugated Bedaquiline, inducing ATP-depletion ([4]; initial/early assessment): 2-5 fold
potency relative to unconjugated Bedaquiline, inhibiting spontaneous metastasis (MDA-MB-231 cells [5]; initial/early assessment, CAM assay): 2-5 fold
potency relative to unconjugated Bedaquiline, inhibiting mammosphere formation (MDA-MB-231 cells [7]; initial/early assessment): 2-5 fold
